These results are taken from ChEMBL document CHEMBL1240397, “Amodiaquine dosage and tolerability for intermittent preventive treatment to prevent malaria in children” (Antimicrob Agents Chemother, 2010).

What all share (type): organism-based
What all share (conditions): in vivo, po

The subject of data set [1] is Homo sapiens. Description: Toxicity in children with malaria assessed as incidence of rashes at >19 mg/kg/day, perorally and co-treated with sulfadoxine and pyrimethamine during intermittent preventive treatment to prevent malaria in children regimen.
Data set [2] concerns Homo sapiens. Description: Toxicity in children with malaria assessed as incidence of rashes at <15 mg/kg/day, perorally and co-treated with sulfadoxine and pyrimethamine during intermittent preventive treatment to prevent malaria in children regimen.
Data set [3] concerns Homo sapiens. The data set is described as follows: Toxicity in children with malaria under 2 years of age assessed as incidence of rashes administered with 250 mg sulfalene/12.5 mg pyrimethamine on first day followed by compound treatment at <=15 mg/kg/day, perorally.
Data set [4] deals with Homo sapiens. The data set is described as follows: Toxicity in children with malaria assessed as incidence of vomiting at 15-17 mg/kg/day, perorally and cotreated with Sulfadoxine and pyrimethamine during intermittent preventive treatment to prevent malaria in children regimen.
The subject of data set [5] is Homo sapiens. Description: Toxicity in children with malaria under 2 years of age assessed as incidence of itching administered with 250 mg sulfalene/12.5 mg pyrimethamine on first day followed by compound treatment at <=15 mg/kg/day, perorally.
Data set [6] has as its system Homo sapiens. The data set is described as follows: Toxicity in children with malaria over 2 years of age assessed as incidence of fever at >=15 mg/kg/day, perorally co-treated with 500 mg sulfalene/25 mg pyrimethamine.
Data set [7] has as its system Homo sapiens. Description: Toxicity in children with malaria over 2 years of age assessed as incidence of itching at >=15 mg/kg/day, perorally co-treated with 500 mg sulfalene/25 mg pyrimethamine.
The subject of data set [8] is Homo sapiens. Description: Toxicity in children with malaria under 2 years of age assessed as incidence of headache administered with 250 mg sulfalene/12.5 mg pyrimethamine on first day followed by compound treatment at <=15 mg/kg/day, perorally.
For data set [9], the system named is Homo sapiens. Description: Toxicity in children with malaria assessed as incidence of rashes at 15-17 mg/kg/day, perorally and co-treated with sulfadoxine and pyrimethamine during intermittent preventive treatment to prevent malaria in children regimen.
Data set [10] concerns Homo sapiens. The data set is described as follows: Toxicity in children with malaria over 2 years of age assessed as incidence of vomiting at >=15 mg/kg/day, perorally co-treated with 500 mg sulfalene/25 mg pyrimethamine.
For data set [11], the system named is Homo sapiens. The data set is described as follows: Toxicity in children with malaria over 2 years of age assessed as incidence of rashes at >=15 mg/kg/day, perorally co-treated with 500 mg sulfalene/25 mg pyrimethamine.
Data set [12] has as its system Homo sapiens. The data set is described as follows: Toxicity in children with malaria over 2 years of age assessed as incidence of headache at >=15 mg/kg/day, perorally co-treated with 500 mg sulfalene/25 mg pyrimethamine.
Data set [13] concerns Homo sapiens. Description: Toxicity in children with malaria assessed as incidence of vomiting at <15 mg/kg/day, perorally and co-treated with sulfadoxine and pyrimethamine during intermittent preventive treatment to prevent malaria in children regimen.
For data set [14], the system named is Homo sapiens. Description: Toxicity in children with malaria assessed as febrile incidence at 17-19 mg/kg/day, perorally and cotreated with Sulfadoxine and pyrimethamine during intermittent preventive treatment to prevent malaria in children regimen.
For data set [15], the system named is Homo sapiens. The data set is described as follows: Toxicity in children with malaria assessed as febrile incidence at >19 mg/kg/day, perorally and co-treated with sulfadoxine and pyrimethamine during intermittent preventive treatment to prevent malaria in children regimen.
In data set [16] the test system is Homo sapiens. The data set is described as follows: Toxicity in children with malaria assessed as incidence of rashes at 17-19 mg/kg/day, perorally and cotreated with Sulfadoxine and pyrimethamine during intermittent preventive treatment to prevent malaria in children regimen.
The test system of data set [17] is Homo sapiens. Description: Toxicity in children with malaria assessed as febrile incidence at 15-17 mg/kg/day, perorally and co-treated with sulfadoxine and pyrimethamine during intermittent preventive treatment to prevent malaria in children regimen.
Data set [18] has as its system Homo sapiens. The data set is described as follows: Toxicity in children with malaria under 2 years of age assessed as incidence of fever administered with 250 mg sulfalene/12.5 mg pyrimethamine on first day followed by compound treatment at <=15 mg/kg/day, perorally.
Data set [19] concerns Homo sapiens. Description: Toxicity in children with malaria under 2 years of age assessed as incidence of vomiting administered with 250 mg sulfalene/12.5 mg pyrimethamine on first day followed by compound treatment at <=15 mg/kg/day, perorally.
Data set [20] deals with Homo sapiens. The data set is described as follows: Toxicity in children with malaria assessed as febrile incidence at <15 mg/kg/day, perorally and co-treated with sulfadoxine and pyrimethamine during intermittent preventive treatment to prevent malaria in children regimen.

Regarding `CCN(CC)Cc1cc(Nc2ccnc3cc(Cl)ccc23)ccc1O.Cl`, the Activity was found to be 2.2% in the data set with Homo sapiens [1]; 0.8% in the data set on Homo sapiens [2]; 1.9% in the data set with Homo sapiens [3]; 9.2% in the data set on Homo sapiens [4]; 1.9% in the data set with Homo sapiens [5]; 29.8% in the data set on Homo sapiens [6]. For the same compound, the Activity in the data set on Homo sapiens [7] is given as 3.8%; in the data set on Homo sapiens [8], 9.6%; in the data set on Homo sapiens [9], 0%; with Homo sapiens [10], 41.3%; in the data set with Homo sapiens [11], 1.9%; in the data set with Homo sapiens [12], 5.8%. Further, the Activity is 7% with Homo sapiens [13]; 9.9% with Homo sapiens [14]; 21.7% in the data set with Homo sapiens [15]; 0.8% in the data set with Homo sapiens [16]; 10.7% in the data set with Homo sapiens [17]; 26.4% with Homo sapiens [18]. In addition, the Activity in the data set on Homo sapiens [19] was 26.4%; in the data set with Homo sapiens [20], 6.3%.
